Results from patent US20240368710A1, “STREAMLINED PLATFORM FOR BACTERIAL IDENTIFICATION AND ANTIBIOTIC SUSCEPTIBILITY TEST” (THE JOHNS HOPKINS UNIVERSITY, priority 2017, published 2024).

Tests used:
S. aureus [1] = assay: bulk qPCR/HRMA antibiotic susceptibility test (growth by 16S rDNA Cq); format: cell-based, Staphylococcus aureus; conditions: 2 hours of incubation with gentamicin (1 μg/mL, FIG. 6A)
Procedure: (§1) FIG. 1 illustrates a protocol for combined ID (Identification of pathogen species) and AST (antibiotic susceptibility test) in bulk format. The protocol begins by dividing the sample into 2 portions; with and without antibiotic followed by brief incubation. Then, the cultured samples are added into PCR mixture to perform qPCR & HRMA. An additional step of DNA isolation may be performed prior to PCR. AST is determined based on Cq differences (ΔCq) and ID is obtained from HRMA based classification.
FIG. 6A-6C illustrates an integrated broad-scale pathogen identification and growth detection via qPCR and HRMA. […] The growth status and antibiotic susceptibility of bacteria were determined by comparing the Cq value to the no-drug control. (b) Measured melt curves from amplicons of E. coli and S. aureus for both sensitive and resistant strands. […]
(§2) The inventors have designed an assay protocol to enable combined ID and AST into a single step process (FIG. 1) and using the whole blood sample as an example (FIG. 4). […] The subsequent translation to the microfluidic single-cell assay in described below can facilitate digital diagnostics with enhanced sensitivity, specificity and quantification capability.
The present invention measures bacterial growth by quantifying the bacterial DNA content using qPCR. […]

E. coli = assay: as above; format: cell-based, Escherichia coli; conditions: for Cq value compared to the no-drug (growth) controls: 2 hours of incubation with gentamicin (1 μg/mL, FIG. 6A)
Procedure: as §1
FIG. 5A-5B illustrates the comparison between the proposed AST approaches to conventional broth microdilutional method. […] (b) Conventional broth microdilutional method of the same drug concentration with overnight incubation.
FIG. 6A-6C illustrates an integrated broad-scale pathogen identification and growth detection via qPCR and HRMA. (a) Measurement of bacterial growth of E. coli and S. aureus under treatment of gentamicin (1 μg/mL) via qPCR detection of 16S rDNA. The growth status and antibiotic susceptibility of bacteria were determined by comparing the Cq value to the no-drug control. (b) Measured melt curves from amplicons of E. coli and S. aureus for both sensitive and resistant strands. […]
as §2
The present invention measures bacterial growth by quantifying the bacterial DNA content using qPCR. […] When performing AST, the sample from culture tubes are added to PCR mixes immediately after brief bacterial culture for subsequent detection and quantification of bacterial DNA via qPCR. The quantification cycle (Cq) value indicates the difference in growth rate of different strains under the drug treatment; thereby the antibiotic susceptibility can be determined. […]

S. aureus [2] = assay: digital PCR/HRMA AST of mixed sample in 96-well plate; format: cell-based, Staphylococcus aureus; conditions: sensitive strain in mix with E. faecalis; 2 hours with and without 8 μg/mL of gentamicin; DNA diluted 60000-fold
Procedure: (§3) FIG. 2 illustrates a protocol for combined ID and AST using digital detection. The protocol begins by dividing the sample into 2 portions; with and without antibiotic followed by brief incubation. DNA isolation can be performed to extract bacterial DNA from the samples. Then, the samples are mixed with PCR mixture and diluted across very large number of isolated small volume reactions so that there is either zero or one bacterial DNA present in any individual reaction to perform digital PCR & digital HRMA. ID is obtained from HRMA based classification on each positive reactions. AST of each target bacterial species is determined by comparing the quantity of the DNA of the target bacteria from the 2 portions which indicates by the total number of positive identification associated to the identified target bacteria species.
(§4) FIG. […] Orange lines represent S. aureus and blue lines represent E. faecalis. (a) Melt curves from the sample incubated without gentamicin (b) Melt curves from the sample incubated with gentamicin (c) AST can be determined using absolute count of each species which bases on the total number of positive reactions of each specific melt curve from HRMA.
(§5) This method (FIG. 2) begins by splitting the sample to incubate with and without antibiotic. […] The species of unidentified bacteria in each positive reactions is then determined preferably using HRMA. […]

E. faecalis = assay: as above; format: cell-based, Enterococcus faecalis; conditions: sensitive strain in mix with S. aureus; 2 hours with and without 8 μg/mL of gentamicin; DNA diluted 60000-fold
Procedure: as §3, §4, §5

gentamicin
Cq value compared to the no-drug (growth) controls (S. aureus [1]; resistant strand of S. aureus): close to the no-drug controls | Cq value compared to the no-drug (growth) controls (S. aureus [1]; sensitive strand of S. aureus): increased Cq value | MIC range by ΔCq approach (E. coli; E. coli sensitive strain, gentamicin 0.125-8 μg/mL, FIG. 5): corresponds to standard CLSI MIC value and the conventional method | Cq value compared to the no-drug (growth) controls (E. coli; resistant strand of E. coli): close to the no-drug controls | Cq value compared to the no-drug (growth) controls (E. coli; sensitive strand of E. coli): increased Cq value | count of no-gentamicin controls greater than gentamicin-treated samples (S. aureus [2]): 3-5 folds | count of no-gentamicin controls greater than gentamicin-treated samples (E. faecalis): 3-5 folds
